The numbers were not newly measured in US10010703B2, “Drug device configured for wireless communication” (POP TEST ABUSE DETERRENT TECHNOLOGY LLC, priority 2014, dated 2018), which cites them from elsewhere.

One data set has as its target T1, glucocorticoid receptor (Homo sapiens, UniProt P04150).
T1 sequence (P04150 1-777): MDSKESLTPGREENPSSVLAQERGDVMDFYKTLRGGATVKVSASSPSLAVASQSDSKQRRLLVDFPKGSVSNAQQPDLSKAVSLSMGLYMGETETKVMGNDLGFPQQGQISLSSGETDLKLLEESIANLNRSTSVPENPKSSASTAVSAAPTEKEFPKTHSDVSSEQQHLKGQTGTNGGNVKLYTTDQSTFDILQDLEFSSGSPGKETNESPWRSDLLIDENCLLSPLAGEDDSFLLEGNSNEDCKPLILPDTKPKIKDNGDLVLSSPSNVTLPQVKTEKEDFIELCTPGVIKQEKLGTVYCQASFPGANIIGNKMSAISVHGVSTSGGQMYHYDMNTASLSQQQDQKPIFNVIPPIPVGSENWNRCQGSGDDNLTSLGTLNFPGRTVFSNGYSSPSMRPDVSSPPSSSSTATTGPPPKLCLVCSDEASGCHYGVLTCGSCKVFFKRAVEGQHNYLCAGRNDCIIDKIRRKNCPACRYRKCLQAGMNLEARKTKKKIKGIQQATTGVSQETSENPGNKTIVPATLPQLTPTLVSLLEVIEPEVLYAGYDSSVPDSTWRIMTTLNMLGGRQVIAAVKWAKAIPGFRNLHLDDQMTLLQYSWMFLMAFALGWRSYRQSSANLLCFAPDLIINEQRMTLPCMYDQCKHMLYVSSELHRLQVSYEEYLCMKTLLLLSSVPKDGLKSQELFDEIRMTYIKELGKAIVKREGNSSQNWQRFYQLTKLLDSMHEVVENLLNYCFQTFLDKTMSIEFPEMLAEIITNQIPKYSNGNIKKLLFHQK

The conditions of data set [1]: phase I and phase II clinical trials.
In another data set the target is T2, progesterone receptor (Homo sapiens, UniProt P06401).
T2 sequence (P06401 1-933): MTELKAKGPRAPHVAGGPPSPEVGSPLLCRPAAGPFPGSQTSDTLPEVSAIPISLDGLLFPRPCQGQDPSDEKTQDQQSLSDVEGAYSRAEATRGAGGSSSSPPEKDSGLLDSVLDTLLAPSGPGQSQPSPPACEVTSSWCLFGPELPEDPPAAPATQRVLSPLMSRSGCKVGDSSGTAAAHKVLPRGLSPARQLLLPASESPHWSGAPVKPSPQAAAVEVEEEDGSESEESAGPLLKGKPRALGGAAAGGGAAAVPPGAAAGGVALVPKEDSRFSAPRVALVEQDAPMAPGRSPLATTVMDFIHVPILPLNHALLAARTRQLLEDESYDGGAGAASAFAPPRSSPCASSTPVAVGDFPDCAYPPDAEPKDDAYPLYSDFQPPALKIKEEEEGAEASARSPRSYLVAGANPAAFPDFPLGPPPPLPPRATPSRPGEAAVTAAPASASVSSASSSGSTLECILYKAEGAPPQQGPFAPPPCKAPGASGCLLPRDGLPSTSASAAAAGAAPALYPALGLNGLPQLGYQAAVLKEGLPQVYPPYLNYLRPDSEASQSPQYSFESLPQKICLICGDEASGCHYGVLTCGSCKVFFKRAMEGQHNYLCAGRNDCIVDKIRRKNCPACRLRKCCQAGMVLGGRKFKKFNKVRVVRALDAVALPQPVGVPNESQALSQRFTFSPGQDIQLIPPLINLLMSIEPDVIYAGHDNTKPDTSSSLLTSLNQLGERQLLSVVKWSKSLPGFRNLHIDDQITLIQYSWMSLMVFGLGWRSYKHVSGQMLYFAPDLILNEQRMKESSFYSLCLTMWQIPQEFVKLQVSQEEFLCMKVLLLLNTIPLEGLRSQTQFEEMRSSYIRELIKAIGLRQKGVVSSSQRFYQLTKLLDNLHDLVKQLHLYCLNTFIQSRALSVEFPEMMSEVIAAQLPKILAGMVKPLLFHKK

Another data set addresses T3, estrogen receptor (Homo sapiens, UniProt P03372).
T3 sequence (P03372 1-595): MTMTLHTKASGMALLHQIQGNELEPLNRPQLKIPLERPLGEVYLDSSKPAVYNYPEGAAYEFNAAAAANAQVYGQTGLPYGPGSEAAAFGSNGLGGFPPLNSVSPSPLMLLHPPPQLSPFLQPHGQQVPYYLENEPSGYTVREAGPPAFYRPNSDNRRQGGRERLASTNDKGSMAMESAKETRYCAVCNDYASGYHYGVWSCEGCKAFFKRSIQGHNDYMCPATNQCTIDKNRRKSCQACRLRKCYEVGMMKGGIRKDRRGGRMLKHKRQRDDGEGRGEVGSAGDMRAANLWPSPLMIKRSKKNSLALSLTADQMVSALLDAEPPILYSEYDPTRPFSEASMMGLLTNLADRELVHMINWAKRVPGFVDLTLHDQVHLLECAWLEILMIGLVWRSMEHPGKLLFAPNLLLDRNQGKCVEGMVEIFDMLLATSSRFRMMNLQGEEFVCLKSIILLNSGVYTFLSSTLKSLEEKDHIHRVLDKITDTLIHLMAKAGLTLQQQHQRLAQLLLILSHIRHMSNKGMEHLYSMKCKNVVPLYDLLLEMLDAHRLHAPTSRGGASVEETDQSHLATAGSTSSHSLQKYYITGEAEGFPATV

Take `CC#C[C@]1(O)CC[C@H]2[C@@H]3CCC4=CC(=O)CCC4=C3[C@@H](c3ccc4c(c3)OCO4)C[C@@]21C` [ORG 34517, (11β,17β)-11-(1,3-benzodioxol-5-yl)-17-hydroxy-17-(1-propynyl) estra-4,9-dien-3-one]: the “glucocorticoid receptor binding affinity” value at glucocorticoid receptor was “high”. The “significant toxicities and side effects” value in data set [1] is reported as “none were identified”. Besides, on progesterone receptor, the “affinity for / cross-binding to progesterone receptor” value is listed as “without significant cross-binding”. For the same compound, the “affinity for / cross-binding to estrogen receptor” value at estrogen receptor is reported as “without significant cross-binding”.
